Legend:
[1] = tested on: voltage-gated calcium channels, N1E115 mouse neuroblastoma cells; assay type: cell-based
[2] = tested on: OCT receptor sites, NG-108 cells; assay type: binding, Rat glioma x mouse neuroblastoma

| SMILES | ED50 (50% inhibition of calcium current) [1] [nM] | concentration of specific binding sites [2] |
| --- | --- | --- |
| C[C@@H](O)[C@@H]1NC(=O)[C@H](Cc2ccc(O)cc2)NC(=O)[C@@H]2C[C@@H](O)CN2C(=O)[C@H](CC(N)=O)NC(=O)[C@@H]2CSSC[C@@H]3NC(=O)[C@H](CO)NC(=O)[C@H](CO)NC(=O)CNC(=O)[C@@H]4C[C@@H](O)CN4C(=O)[C@H](CO)NC(=O)[C@H](CCCCN)NC(=O)[C@@H](N)CSSC[C@H](NC(=O)[C@H](CSSC[C@@H](C(=O)N[C@@H](Cc4ccc(O)cc4)C(N)=O)NC(=O)[C@H](CCCNC(=N)N)NC(=O)[C@H](CCCCN)NC1=O)NC(=O)[C@H](CC(N)=O)NC(=O)[C@H](Cc1ccc(O)cc1)NC(=O)[C@H](CO)NC(=O)[C@H]([C@@H](C)O)NC(=O)[C@@H]1C[C@@H](O)CN1C(=O)[C@H](CO)NC3=O)C(=O)N[C@@H](CCCNC(=N)N)C(=O)N[C@@H](CO)C(=O)N2 [GVIA, HCysLysSer4HypGlySerSerCysSer4HypThrSerTyrAsnCysCysArgSerCysAsn4HypTyrLysArgCysTyr-NH2] | 12 |  |
| CSCC[C@@H]1NC(=O)[C@H](CC(C)C)NC(=O)[C@H](CCCNC(=N)N)NC(=O)[C@H](CO)NC(=O)[C@@H]2CSSC[C@@H]3NC(=O)[C@H](CO)NC(=O)CNC(=O)[C@H]([C@@H](C)O)NC(=O)[C@H](CSSC[C@H](N)C(=O)N[C@@H](CCCCN)C(=O)NCC(=O)N[C@@H](CCCCN)C(=O)NCC(=O)N[C@@H](C)C(=O)N[C@@H](CCCCN)C(=O)N2)NC(=O)[C@H](CSSC[C@@H](C(N)=O)NC(=O)[C@H](CCCCN)NC(=O)CNC(=O)[C@H](CO)NC(=O)[C@H](CCCNC(=N)N)NC3=O)NC(=O)[C@H](CC(=O)O)NC(=O)[C@H](Cc2ccc(O)cc2)NC1=O [MVIIA] |  | 45.6 |
